Results published in patent publication US20180306819A1, “ANTI-PLATELET RESPONSE AND REACTIVITY TEST USING SYNTHETIC COLLAGEN” (JNC CORPORATION, priority 2012, published 2018).

System: normal human platelet rich plasma
Test: Agonist-induced platelet aggregation in platelet rich plasma, PAP 8E aggregometer
Format: cell-based
Settings: non-aspirinized plasma; for effect on ADP-induced aggregation: ADP 10 μM; for effect on Bio/Data collagen-induced aggregation: Bio/Data collagen 190 μg/mL; for effect on Chrono Log collagen-induced aggregation: Chrono Log collagen 10 μg/mL; for effect on arachidonic acid-induced aggregation: arachidonic acid 500 μg/mL; for effect on aggregation induced by lower concentrations of synthetic collagen: synthetic collagen 32 ng/mL and lower (32, 16, 8 ng/mL); for effect on aggregation induced by 64 ng/mL synthetic collagen: synthetic collagen 64 ng/mL
Protocol: ADP was obtained from Bio/Data Corporation, Horsham, Pa. Each vial was reconstituted with 1 mL of deionized water to make a 100 μM working solution. The final concentration of ADP in the aggregation cuvette was 10 μM.
Arachidonic acid was obtained from Bio/Data Corporation, Horsham, Pa. Each vial was reconstituted with 0.5 mL deionized water to make a 5 mg/mL working solution. The final concentration of arachidonic acid in the aggregation cuvette was 500 μg/mL.
Collagen was obtained from Bio/Data Corporation, Horsham, Pa. Each vial was reconstituted with 0.5 mL deionized water to make a 1.9 mg/mL working solution. The final concentration of Bio/Data collagen in the aggregation cuvette was 190 μg/mL.
Collagen was obtained from Chrono Log Corporation, Havertown, Pa. as a 1 mg/mL solution. A working solution of 100 μg/mL was made by dilution with physiologic saline. The final concentration of Chrono Log collagen in the aggregation cuvette was 10 μg/mL.
Synthetic collagen was provided by JNC Corporation, Yokohama, Japan at working concentrations of 80, 160, 320 and 640 ng/mL. The final concentrations of synthetic collagen in the aggregation cuvette were 64, 32, 16 and 8 ng/mL.
Approval for the collection of whole blood from healthy human volunteers was granted from the Institutional Review Board of the Health Sciences Division of Loyola University Chicago. Whole blood was drawn using a double syringe technique from the antecubital vein and anticoagulated by the addition of 1 part 3.2% sodium citrate to (9 parts blood to 1 part citrate). Citrated blood was centrifuged at 80×g at room temperature for 15 minutes to make platelet rich plasma (PRP). Supernatant PRP was collected and kept at room temperature in capped tubes. The remaining citrated blood was recentrifuged at 1,100×g for 15 minutes to make platelet poor plasma (PPP). The platelet count of the PRP was determined using an ICHOR II Analyzer, Helena Laboratories, Beaumont, Tex. Platelet count in the PRP was adjusted to 250,000-300,000/μl by the addition of homologous PPP.
Platelet aggregation was measured using a PAP 8E platelet aggregometer (Bio/Data). Each well was blanked using PPP. 25 μl of saline or antiplatelet drug and 200 μl of PRP were added to cuvettes containing magnetic stir bars and incubated for three minutes to equilibrate the sample to 37° C. 25 μl of agonist was added to each cuvette and the aggregation profile was monitored until a plateau was achieved. Results were tabulated in terms of maximal aggregation level. Under some reaction conditions, reversible aggregation was observed. This was most commonly observed with ADP and arachidonic acid-induced aggregation in the presence of ticagrelor or cilostazol. Final aggregation levels were also tabulated.

In the case of CCCSc1nc(N[C@@H]2C[C@H]2c2ccc(F)c(F)c2)c2nnn([C@@H]3C[C@H](OCCO)[C@@H](O)[C@H]3O)c2n1 [ticagrelor, (1S,2S,3R,5S)-3-[7-[[(1R,2S)-2-(3,4-difluorophenyl)cyclopropyl]amino]-5-propylsulfanyltriazolo[4,5-d]pyrimidin-3-yl]-5-(2-hydroxyethoxy)cyclopentane-1,2-diol], the “effect on ADP-induced aggregation” value is reported as “strongly inhibited”, the “effect on Bio/Data collagen-induced aggregation” value is reported as “Neither Bio/Data collagen, Chrono Log collagen nor 64 ng/mL synthetic collagen was markedly impacted” and the “effect on Chrono Log collagen-induced aggregation” value is reported as “Neither Bio/Data collagen, Chrono Log collagen nor 64 ng/mL synthetic collagen was markedly impacted”. For the same molecule, the “effect on arachidonic acid-induced aggregation” value was “inhibited to a similar extent”, the “effect on aggregation induced by lower concentrations of synthetic collagen” value was “antiplatelet effects of Ticagrelor® could be identified” and the “effect on aggregation induced by 64 ng/mL synthetic collagen” value (from here on “effect … by 64 ng/mL synthetic collagen”) was “Neither Bio/Data collagen, Chrono Log collagen nor 64 ng/mL synthetic collagen was markedly impacted”.

In the case of O=C1CCc2cc(OCCCCc3nnnn3C3CCCCC3)ccc2N1 [cilostazol, Cilostazol], the inhibition at 25 µM (Homo sapiens, Platelet, drug at 25 μM, read-out: inhibition of ADP-induced aggregation) is reported as about 30%, the “effect on ADP-induced aggregation” value is reported as “minimally affected” and the “effect on ADP-induced aggregation” value (listed as Cilostazol) is reported as “weaker, concentration-dependent inhibition”. For the same molecule, the “effect on Bio/Data collagen-induced aggregation” value was “did not inhibit aggregation”, the “effect on Chrono Log collagen-induced aggregation” value was “did not inhibit aggregation” and the “effect on arachidonic acid-induced aggregation” value was “strongly inhibited”. The “arachidonic acid-induced aggregation level” value (drug at concentrations ≥12.5 μM, 95% in the absence of drug) was about 20%, the “effect on aggregation induced by lower concentrations of synthetic collagen” value was “the anti-platelet effect of higher concentrations of cilostazol could be observed” and the “effect … by 64 ng/mL synthetic collagen” value was “did not inhibit aggregation”.

B1: abciximab: Fab Fragment Chimeric monoclonal antibody 7E3 (GP IIbIIIa receptor blocker) (antibody, chains of the INN, looked up, V domains shown)
VH: EVQLQQSGTVLARPGASVKMSCEASGYTFTNYWMHWVKQRPGQGLEWIGAIYPGNSDTSYIQKFKGKAKLTAVTSTTSVYMELSSLTNEDSAVYYCTLYDGYYVFAYWGQGTLVTVSA
VL: EIVLTQSPVTLSVTPGDSVSLSCRASRDISNNLHWFQQTSHESPRLLIKYASQSMSGIPSRFSGSGSGTDFTLSINSVETEDFGMYFCQQTNSWPYTFGGGTKLEIK
modifications: Fab
For B1, the “effect on ADP-induced aggregation” value was “inhibited aggregation”, the “effect on Bio/Data collagen-induced aggregation” value was “only observed at the 5 μg/mL concentration” and the “effect on Chrono Log collagen-induced aggregation” value was “only observed at the 5 μg/mL concentration”. For the same molecule, the “effect on arachidonic acid-induced aggregation” value was “most sensitive for detecting the presence of abciximab”, the “inhibition of agonist-induced aggregation (all agonists)” value (concentration range 1.25-5 μg/mL, FIG. 11) was “concentration-dependent inhibition” and the “effect on aggregation induced by lower concentrations of synthetic collagen” value was “most sensitive for detecting the presence of abciximab”. The “effect … by 64 ng/mL synthetic collagen” value was “inhibited by abciximab to a comparable degree”.
